Experimental data: US20260297042A1, “BIARYLAMIDE DERIVATIVES AND THEIR USE AS PKMYT1 INHIBITORS” (CANCER RESEARCH TECHNOLOGY LIMITED, priority 2023, published 2026)

Experiments:
Human PKMYT1 = target: T1, Human PKMYT1 (Homo sapiens, UniProt Q99640); assay: PKMYT1 biochemical ADP-Glo enzymatic assay; details: ADP-Glo
T1 construct: Human PKMYT1 75-362 was cloned as a TEV cleavable 6xHis fusion; 6xHis (TEV cleavable) (cleaved yes); made in house; host or cells: bacterial cells
T1 sequence (Q99640 75-362): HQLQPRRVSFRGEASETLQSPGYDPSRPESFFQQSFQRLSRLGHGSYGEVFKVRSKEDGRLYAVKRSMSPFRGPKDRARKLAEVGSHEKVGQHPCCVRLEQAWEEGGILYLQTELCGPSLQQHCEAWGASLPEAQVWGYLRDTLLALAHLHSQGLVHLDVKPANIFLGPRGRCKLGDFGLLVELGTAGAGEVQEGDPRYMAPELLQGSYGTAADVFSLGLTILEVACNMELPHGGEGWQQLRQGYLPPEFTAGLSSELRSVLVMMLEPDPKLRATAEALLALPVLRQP
Outline: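 IC50 values come from 10-point 3-fold series, with replicates required within 3-fold and r2 >0.9. ADP formed by PKMYT1 intrinsic ATPase (500 uM ATP, 60 min, 26° C.) was quantified by ADP-Glo luminescence. The enzyme was the TEV-cleaved kinase domain 75-362 at 15 nM, in HEPES pH 7.5 buffer.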

OVCAR 3 cells = assay: Cancer cell line proliferation assay, ATP-based cell viability (Cell Titre Glow), OVCAR 3 (CCNE1-amplified); details: KYSE30 (normal CCNE1) GI50 vs. OVCAR 3 (CCNE1-amplified) GI50
Procedure: (§1) Cancer cell lines with either normal (KYSE-30) or amplified CCNE1 expression (OVCAR 3 —ovarian cancer) were evaluated for their sensitivity to PKMYT1 inhibitors using Cell Titre Glow assay (Promega G7573) as endpoint to assess cell proliferation. The luminescence signal was read on a PHERAStar FS microplate reader (BMG Labtech). Data analysis was performed using Microsoft Excel® and Gl50 (concentration that achieves 50% cell growth proliferation inhibition) estimates generated with GraphPad Prism v9.

WEE1 = target: T2, WEE1 (Homo sapiens, UniProt P30291); assay: Selectivity versus WEE1 assay (ADP-Glo enzymatic assay); format: biochemical; details: for IC50: ADP-Glo; for PKMYT1 vs. WEE1 selectivity: fold difference in selectivity for PKMYT1 over WEE1
T2 construct: purchased Thermo Fisher PR7373A
T2 sequence (P30291 whole entry): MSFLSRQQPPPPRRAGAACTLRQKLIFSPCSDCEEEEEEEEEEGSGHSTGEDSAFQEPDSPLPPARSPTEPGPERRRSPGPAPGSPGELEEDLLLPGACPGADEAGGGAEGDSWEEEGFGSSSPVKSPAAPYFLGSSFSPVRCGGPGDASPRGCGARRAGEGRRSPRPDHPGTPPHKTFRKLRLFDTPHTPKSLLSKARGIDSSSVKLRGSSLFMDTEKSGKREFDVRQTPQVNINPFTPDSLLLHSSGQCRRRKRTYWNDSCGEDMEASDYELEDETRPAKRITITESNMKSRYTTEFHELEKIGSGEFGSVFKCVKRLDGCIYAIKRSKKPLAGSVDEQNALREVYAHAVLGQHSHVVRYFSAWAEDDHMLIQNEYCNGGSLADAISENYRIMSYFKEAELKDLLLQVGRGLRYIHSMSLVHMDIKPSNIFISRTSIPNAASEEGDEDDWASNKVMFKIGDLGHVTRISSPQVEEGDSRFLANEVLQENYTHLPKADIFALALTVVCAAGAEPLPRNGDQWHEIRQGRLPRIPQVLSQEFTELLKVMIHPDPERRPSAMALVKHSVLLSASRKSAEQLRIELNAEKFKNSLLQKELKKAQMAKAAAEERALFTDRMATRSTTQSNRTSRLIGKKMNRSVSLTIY
Outline: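 ADP-Glo luminescent read-out after a 60-min, 26 °C kinase reaction of 15 nM WEE1 with 30 µM ATP, in HEPES pH 7.5 buffer containing MgCl2, EGTA, Brij-35 and 1% DMSO. IC50 accepted only when replicate values agree within 3-fold and curve fit r2 exceeds 0.9.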

KYSE-30 cells = assay: Cancer cell line proliferation assay, ATP-based cell viability (Cell Titre Glow), KYSE-30 (normal CCNE1); details: Homo sapiens, KYSE-30 cells (normal CCNE1), concentration that achieves 50% cell growth proliferation inhibition, read-out: KYSE30 Gl50
Procedure: as §1

[1] = PKMYT1 kinase domain 15 nM, banded values
[2] = 15 nM PKMYT1 kinase domain, 500 µM ATP, 60 minutes at 26° C., banded
[3] = 15 nM WEE1, 60 minutes at 26° C., banded
[4] = banded, ">N" = at least in this band but could be higher

Compound	IC50 (Human PKMYT1; [1]) [nM]	Selectivity ratio KYSE30 Gl50 vs. OVCAR3 Gl50 (OVCAR 3 cells)	IC50 (WEE1; WEE1 15 nM, banded values) [nM]	PKMYT1 vs. WEE1 selectivity (WEE1; banded)	GI50 (KYSE-30 cells) [nM]	IC50 (Human PKMYT1; [2]) [nM]	IC50 (WEE1; [3]) [nM]	PKMYT1 vs. WEE1 selectivity (WEE1; [4])
Cc1ccc(O)c(C)c1NC(=O)c1cnc(Nc2ccn(C(C)C(=O)N3CCCC3)n2)s1 (stereo not drawn) [BAA-506, N-(3-Hydroxy-2.6-dimethylphenyl)-2-((1-(1-oxo-1-(pyrrolidin-1-yl)propan-2-yl)-1H-pyrazol-3-yl)amino)thiazole-5-carboxamide]	< 50	Y (>20 fold)	1000 to 11000	X (100-<1000 fold)	> 5000	–	–	–
Cc1cn(-c2cccc(F)c2)nc1Nc1ncc(C(=O)Nc2c(C)ccc(O)c2C)s1 [BAA-368, 2-((1-(3-fluorophenyl)-4-methyl-1H-pyrazol-3-yl)amino)-N-(3-hydroxy-2,6-dimethylphenyl)thiazole-5-carboxamide]	–	Y (>20 fold)	–	–	> 5000	< 50	> 11000	Y (1000-5000 fold)
Cc1ccc(O)c(C)c1NC(=O)c1cnc(Nc2ccn(CC(C)C)n2)s1 [BAA-016, N-(3-hydroxy-2,6-dimethyl-phenyl)-2-[(1-isobutylpyrazol-3-yl)amino]thiazole-5-carboxamide]	–	X (3-20 fold)	–	–	500 to 5000	< 50	1000 to 11000	W (10-<100 fold)
CCn1nc(Nc2ncc(C(=O)Nc3c(C)ccc(O)c3C)s2)cc1C [BAA-495, 2-((1-ethyl-5-methyl-1H-pyrazol-3-yl)amino)-N-(3-hydroxy-2,6-dimethylphenyl)thiazole-5-carboxamide]	50 to 1000	Y (>20 fold)	1000 to 11000	W (10-<100 fold)	> 5000	–	–	–
Cc1ccc(O)c(C)c1NC(=O)c1cnc(Nc2cccc(-c3cc(F)cc(F)c3)n2)s1 [BAA-315, 2-((6-(3,5-difluorophenyl)pyridin-2-yl)amino)-N-(3-hydroxy-2,6-dimethylphenyl)thiazole-5-carboxamide]	–	Y (>20 fold)	–	–	500 to 5000	< 50	> 11000	Y (1000-5000 fold)
Cc1ccc(O)c(C)c1NC(=O)c1cnc(Nc2ncnn3cccc23)s1 [BAA-450, N-(3-hydroxy-2,6-dimethylphenyl)-2-(pyrrolo[2,1-f][1,2,4]triazin-4-ylamino)thiazole-5-carboxamide]	< 50	X (3-20 fold)	1000 to 11000	X (100-<1000 fold)	> 5000	–	–	–
CCN(C)C(=O)Cn1cc(C)c(Nc2ncc(C(=O)Nc3c(C)ccc(O)c3C)s2)n1 [BAA-489, 2-((1-(2-(ethyl(methyl)amino)-2-oxoethyl)-4-methyl-1H-pyrazol-3-yl)amino)-N-(3-hydroxy-2,6-dimethylphenyl)thiazole-5-carboxamide]	< 50	Y (>20 fold)	1000 to 11000	X (100-<1000 fold)	> 5000	–	–	–
Cc1ccc(O)c(C)c1NC(=O)c1cnc(Nc2cc(C)n(C(C)C)n2)s1 [BAA-233, N-(3-hydroxy-2,6-dimethylphenyl)-2-((1-isopropyl-5-methyl-1H-pyrazol-3-yl)amino)thiazole-5-carboxamide]	–	Y (>20 fold)	–	–	> 5000	< 50	50 to 1000	W (10-<100 fold)
Cc1ccc(O)c(C)c1NC(=O)c1cnc(Nc2cc(C)n(C3CCCC3)n2)s1 [BAA-232, 2-((1-cyclopentyl-5-methyl-1H-pyrazol-3-yl)amino)-N-(3-hydroxy-2,6-dimethylphenyl)thiazole-5-carboxamide]	–	Y (>20 fold)	–	–	> 5000	< 50	1000 to 11000	W (10-<100 fold)
